Test results reported in ChEMBL document CHEMBL6134876, “End-to-End Backbone Cyclization Enhances Passive Permeability of bRo5 Oligomeric Depsipeptides with Nonlinear Size Dependence” (ACS Med Chem Lett, 2025).
Starred links: 1 amine or outer side, 2 acyl side, 3 side chain; linkers in the order of their positions; H or OH if unused. Non-standard residues stand in square brackets, D forms with d. Residues, ends and D or L forms follow the SMILES beside them. X1 = CCCCC[C@H](O[*:1])C(=O)[*:2]; Ahp(2) = CCCCC[C@H](N)C(=O)O; dNMeA = CN[C@H](C)C(=O)O

Assays:
Format in all cases: ADME
[1] = Permeability of compound assessed as compound recovery incubated for 14 to 18 hrs by PAMPA; conditions: time 14-18 hrs, read-out: Drug recovery
[2] = Permeability of compound assessed as compound diffusion incubated for 14 to 18 hrs by PAMPA; conditions: time 14-18 hrs
[3] = Apparent permeability of compound incubated for 14 to 18 hrs by PAMPA; conditions: time 14-18 hrs

SMILES | recovery [1] [%] | Activity [2] [%] | Papp [3] | logPapp [3]
CCCCC[C@H](OC(=O)[C@@H](C)N(C)C(=O)[C@H](CCCCC)OC(=O)[C@@H](C)N(C)C(=O)[C@H](CCCCC)OC(=O)[C@@H](C)N(C)C(=O)[C@H](CCCCC)OC(=O)[C@@H](C)N(C)C(=O)[C@H](CCCCC)OC(=O)[C@@H](C)N(C)C(=O)[C@H](CCCCC)OC(=O)[C@@H](C)N(C)C(=O)OC(C)(C)C)C(=O)OCc1ccccc1 |  | < 5 | Below_limit_of_detection | Below_limit_of_detection
CCCCC[C@@H]1NC(=O)[C@@H](C)N(C)C(=O)[C@H](CCCCC)OC(=O)[C@@H](C)N(C)C(=O)[C@H](CCCCC)NC(=O)[C@@H](C)N(C)C(=O)[C@H](CCCCC)OC(=O)[C@@H](C)N(C)C1=O (cyclo([Ahp(2)][dNMeA][X1][dNMeA][Ahp(2)][dNMeA][X1][dNMeA])) |  | 25 |  | 
CCCCC[C@H](NC(=O)[C@@H](C)N(C)C(=O)[C@H](CCCCC)OC(=O)[C@@H](C)N(C)C(=O)[C@H](CCCCC)OC(=O)[C@@H](C)N(C)C(=O)[C@H](CCCCC)OC(=O)[C@@H](C)N(C)C(=O)OC(C)(C)C)C(=O)OCc1ccccc1 | 93 |  |  | 

Second part, the compound after the results:

recovery [1] [%] | Activity [2] [%] | Papp [3] | logPapp [3] | SMILES
92 |  |  |  | CCCCC[C@H](NC(=O)[C@@H](C)N(C)C(=O)[C@H](CCCCC)NC(=O)[C@@H](C)N(C)C(=O)[C@H](CCCCC)OC(=O)[C@@H](C)N(C)C(=O)[C@H](CCCCC)OC(=O)[C@@H](C)N(C)C(=O)OC(C)(C)C)C(=O)OCc1ccccc1
89 | 12 |  |  | CCCCC[C@H](NC(=O)[C@@H](C)N(C)C(=O)[C@H](CCCCC)NC(=O)[C@@H](C)N(C)C(=O)[C@H](CCCCC)NC(=O)[C@@H](C)N(C)C(=O)[C@H](CCCCC)OC(=O)[C@@H](C)N(C)C(=O)OC(C)(C)C)C(=O)OCc1ccccc1
